{
  "source": "patent US20110306622A1",
  "about": "“METHODS OF TREATING HEMATOLOGICAL DISORDERS WITH QUINAZOLINONE COMPOUNDS IN SELECTED SUBJECTS” (Calitoga Pharmaceuticals, Inc., priority 2010, published 2011)",
  "key": {"[1]": {"test_system": "BCR-induced secretion of CCL3 and CCL4 by CLL cells", "test": "BCR-induced (anti-IgM) secretion of chemokines CCL3 and CCL4 by CLL cells, ELISA of supernatants", "assay_type": "cell-based", "conditions": "medium with anti-IgM plus compound, 24 hours, anti-IgM alone raised levels roughly 5 to 6 fold"}, "[2]": {"test_system": "CCL3, CCL17 and TNF-alpha in CLL patients", "test": "Clinical evaluation in CLL patients: change in plasma CCL3, CCL17 and TNF-alpha compared to decrease in lymph node size", "assay_type": "in vivo, human", "conditions": "responders = lymph node decreases of 50% or greater, FIG. 10", "protocol": "The concentration of CCL3, CCL17 and TNF-alpha were determined in the plasma samples by a bead-based ELISA technology. The resulting plasma concentrations of these factors were compared to decrease in lymph node size. Patients that had lymph node decreases of 50% or greater were designated as “responders” to the drug."}, "[3]": {"test_system": "CCL17, CCL22, CXCL13 and TNF-alpha levels in iNHL patients", "test": "Plasma chemokine and TNF-alpha levels and tumor size in iNHL patients, pre-treatment vs Day 28", "assay_type": "in vivo, human", "protocol": "(§1) 103 patients were enrolled in the study, including 40 with MCL and 63 with iNHL. Among patients with iNHL, all 4 subtypes were represented. Patients were heavily treated with chemoimmunotherapy. Patients had received a median of 4 prior regimens and some had received as many as 14 prior regimens. Most patients had received several types of chemoimmunotherapy for NHL. Disease was commonly refractory to available therapies.\n(§2) Patients were treated over a broad range of doses of Compound A using once-per-day (QD) and twice-per-day (BID) continuous and intermittent schedules. Patients remained on therapy for protracted periods; many patients with iNHL continued on treatment beyond 12 cycles (48 weeks).\n(§3) Prior to treatment, the concentration of CCL17, CCL22, CXCL13, and TNF-alpha was evaluated. On the last day of the cycle, the plasma concentration of the chemokines and TNF-alpha was re-assessed. Table 3 (for MCL) and Table 4 (for iNHL) below summarize the chemokine and TNF-alpha concentration at the baseline and at Day 28 of the cycle."}, "[4]": {"target": "T1, PI3Kγ (Mus musculus, UniProt Q9JHG7)", "T1 construct": "endogenous in cells; host or cells: RAW-264 monocyte cell line", "T1 sequence (Q9JHG7 whole entry, canonical isoform)": "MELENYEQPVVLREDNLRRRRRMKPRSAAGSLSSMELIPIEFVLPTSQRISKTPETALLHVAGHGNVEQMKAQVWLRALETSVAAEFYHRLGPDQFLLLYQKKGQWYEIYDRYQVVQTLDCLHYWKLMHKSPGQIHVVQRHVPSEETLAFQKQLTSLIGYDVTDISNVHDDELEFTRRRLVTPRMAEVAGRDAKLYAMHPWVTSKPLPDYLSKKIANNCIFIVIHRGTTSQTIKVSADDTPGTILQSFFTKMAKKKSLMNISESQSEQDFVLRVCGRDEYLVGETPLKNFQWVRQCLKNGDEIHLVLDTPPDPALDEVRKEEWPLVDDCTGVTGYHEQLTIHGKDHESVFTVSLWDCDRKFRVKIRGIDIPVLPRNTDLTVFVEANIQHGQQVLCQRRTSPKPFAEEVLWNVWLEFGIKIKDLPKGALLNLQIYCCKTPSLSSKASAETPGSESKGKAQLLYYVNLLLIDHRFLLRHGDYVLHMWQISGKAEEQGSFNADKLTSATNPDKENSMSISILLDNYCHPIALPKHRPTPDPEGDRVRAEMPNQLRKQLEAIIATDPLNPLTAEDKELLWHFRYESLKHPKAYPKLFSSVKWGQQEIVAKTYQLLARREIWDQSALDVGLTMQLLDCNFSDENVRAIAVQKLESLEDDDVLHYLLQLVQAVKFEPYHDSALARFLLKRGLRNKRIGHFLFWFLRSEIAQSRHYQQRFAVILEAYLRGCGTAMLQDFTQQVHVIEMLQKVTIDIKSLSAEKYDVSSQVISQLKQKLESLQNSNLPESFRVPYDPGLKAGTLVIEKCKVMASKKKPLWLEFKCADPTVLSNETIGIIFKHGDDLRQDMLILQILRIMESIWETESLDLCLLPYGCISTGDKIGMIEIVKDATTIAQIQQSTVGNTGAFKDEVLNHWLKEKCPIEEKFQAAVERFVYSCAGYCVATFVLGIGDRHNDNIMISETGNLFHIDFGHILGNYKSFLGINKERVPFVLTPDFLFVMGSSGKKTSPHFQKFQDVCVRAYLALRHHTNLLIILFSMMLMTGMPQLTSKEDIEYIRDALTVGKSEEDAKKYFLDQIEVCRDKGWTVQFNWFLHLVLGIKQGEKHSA", "T1 sequence (Q5SW28 whole entry partner, canonical isoform)": "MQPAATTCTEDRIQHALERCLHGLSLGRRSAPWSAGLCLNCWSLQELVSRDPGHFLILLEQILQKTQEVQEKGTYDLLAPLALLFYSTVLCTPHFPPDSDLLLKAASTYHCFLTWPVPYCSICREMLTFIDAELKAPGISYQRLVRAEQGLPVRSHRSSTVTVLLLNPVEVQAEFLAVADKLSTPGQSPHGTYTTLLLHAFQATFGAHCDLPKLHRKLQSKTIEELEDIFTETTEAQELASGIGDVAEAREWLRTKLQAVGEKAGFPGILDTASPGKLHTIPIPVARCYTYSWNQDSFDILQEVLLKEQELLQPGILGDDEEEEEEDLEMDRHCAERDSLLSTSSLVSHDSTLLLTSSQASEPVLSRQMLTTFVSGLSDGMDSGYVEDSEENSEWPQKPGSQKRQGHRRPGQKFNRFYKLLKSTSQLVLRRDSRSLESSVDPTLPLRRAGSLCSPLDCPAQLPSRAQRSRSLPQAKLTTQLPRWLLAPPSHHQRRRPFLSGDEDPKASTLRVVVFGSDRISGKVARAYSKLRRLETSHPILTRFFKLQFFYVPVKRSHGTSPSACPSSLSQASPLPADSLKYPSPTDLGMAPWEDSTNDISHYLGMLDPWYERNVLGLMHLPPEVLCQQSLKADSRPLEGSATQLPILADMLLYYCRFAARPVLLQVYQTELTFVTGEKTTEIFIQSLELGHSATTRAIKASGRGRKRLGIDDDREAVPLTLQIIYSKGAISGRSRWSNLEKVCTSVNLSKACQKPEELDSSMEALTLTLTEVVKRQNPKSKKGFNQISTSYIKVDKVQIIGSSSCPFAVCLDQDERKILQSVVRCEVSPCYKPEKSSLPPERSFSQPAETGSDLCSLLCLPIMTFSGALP", "test": "Isoform specific cell-based assay: C5a induced pAKT in monocyte cell line (RAW-264)", "conditions": "n = 11", "protocol": "(§4) Swiss-3T3 fibroblasts and RAW-264 were seeded on a 96-well tissue culture plate and allowed to reach at least 90% confluency. […] Akt phosphorylation and total AKT was detected by ELISA. Purified B-cells were treated with either vehicle or serial dilutions of compound I for 30 minutes at room temperature before the addition of purified goat anti-human IgM. Results are expressed as relative [^3H] thymidine incorporation induced by IgM crosslinking."}, "[5]": {"target": "PI3Kalpha (Mus musculus, UniProt P42337)", "sequence (P42337 whole entry, canonical isoform)": "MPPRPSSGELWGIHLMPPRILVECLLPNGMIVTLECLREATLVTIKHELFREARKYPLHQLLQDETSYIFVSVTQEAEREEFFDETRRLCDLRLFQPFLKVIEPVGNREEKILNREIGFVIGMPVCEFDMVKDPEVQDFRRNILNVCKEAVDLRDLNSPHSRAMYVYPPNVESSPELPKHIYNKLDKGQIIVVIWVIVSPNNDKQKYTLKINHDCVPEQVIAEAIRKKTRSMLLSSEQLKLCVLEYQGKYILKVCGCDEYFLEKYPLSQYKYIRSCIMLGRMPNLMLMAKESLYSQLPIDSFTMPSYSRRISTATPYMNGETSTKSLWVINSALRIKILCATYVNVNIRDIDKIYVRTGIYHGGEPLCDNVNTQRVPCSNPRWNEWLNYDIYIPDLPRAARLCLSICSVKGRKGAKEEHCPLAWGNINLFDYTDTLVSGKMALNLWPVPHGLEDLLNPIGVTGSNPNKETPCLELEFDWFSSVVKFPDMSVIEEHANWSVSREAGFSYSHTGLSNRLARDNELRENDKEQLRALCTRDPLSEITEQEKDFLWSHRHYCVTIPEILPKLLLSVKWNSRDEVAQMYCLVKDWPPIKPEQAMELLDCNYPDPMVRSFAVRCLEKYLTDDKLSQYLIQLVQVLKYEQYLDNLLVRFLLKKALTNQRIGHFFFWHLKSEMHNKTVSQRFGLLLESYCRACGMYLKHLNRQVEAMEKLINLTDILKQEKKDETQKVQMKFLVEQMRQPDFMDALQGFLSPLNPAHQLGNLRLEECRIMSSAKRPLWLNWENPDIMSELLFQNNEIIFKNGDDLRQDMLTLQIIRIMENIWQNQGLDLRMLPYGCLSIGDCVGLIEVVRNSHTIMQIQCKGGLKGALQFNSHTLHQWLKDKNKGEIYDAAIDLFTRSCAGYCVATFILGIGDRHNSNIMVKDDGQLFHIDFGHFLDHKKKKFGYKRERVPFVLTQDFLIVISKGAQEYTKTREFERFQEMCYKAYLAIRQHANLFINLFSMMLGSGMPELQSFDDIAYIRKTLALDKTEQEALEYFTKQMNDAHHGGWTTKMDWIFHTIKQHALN", "sequence (P26450 whole entry partner, canonical isoform)": "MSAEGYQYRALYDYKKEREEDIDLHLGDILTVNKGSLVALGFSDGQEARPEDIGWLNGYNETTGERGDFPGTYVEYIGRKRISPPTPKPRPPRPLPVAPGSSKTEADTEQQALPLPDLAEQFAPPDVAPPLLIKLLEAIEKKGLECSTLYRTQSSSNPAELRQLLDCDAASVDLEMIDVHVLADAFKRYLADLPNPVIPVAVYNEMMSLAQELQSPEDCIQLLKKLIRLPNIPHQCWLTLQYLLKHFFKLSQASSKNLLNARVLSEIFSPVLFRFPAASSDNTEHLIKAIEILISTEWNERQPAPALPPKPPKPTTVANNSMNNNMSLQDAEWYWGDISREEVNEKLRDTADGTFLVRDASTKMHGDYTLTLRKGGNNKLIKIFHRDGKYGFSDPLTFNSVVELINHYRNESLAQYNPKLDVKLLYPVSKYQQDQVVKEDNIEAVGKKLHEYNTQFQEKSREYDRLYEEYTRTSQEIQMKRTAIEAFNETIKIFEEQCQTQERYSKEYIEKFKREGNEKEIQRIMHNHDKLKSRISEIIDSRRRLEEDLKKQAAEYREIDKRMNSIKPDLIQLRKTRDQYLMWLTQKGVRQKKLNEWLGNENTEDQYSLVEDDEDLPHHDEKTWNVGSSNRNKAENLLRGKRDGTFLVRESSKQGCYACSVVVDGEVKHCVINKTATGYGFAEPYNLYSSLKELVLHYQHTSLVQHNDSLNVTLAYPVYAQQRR", "test": "Isoform specific cell-based assay: PDGF induced pAKT in fibroblast cell line (Swiss-3T3)", "conditions": "n = 12", "protocol": "as §4"}, "[6]": {"test_system": "CCL17, CCL22, CXCL13 and TNF-alpha levels in MCL patients", "test": "Plasma chemokine and TNF-alpha levels and tumor size in MCL patients, pre-treatment vs Day 28", "assay_type": "in vivo, human", "protocol": "as §1, §2, §3"}, "[7]": {"test_system": "CCL3, CCL4 and CXCL13 chemokine levels in CLL patients", "test": "Plasma chemokine levels in CLL patients before and after one 28-day cycle of treatment (multiplexed bead suspension arrays)", "assay_type": "in vivo, human", "protocol": "Plasma was stored at −70 degrees centigrade. Before analysis, samples were thawed overnight at 4 degrees centigrade and centrifuged at 1,500×g to remove debris. Chemokines were analyzed with commercially available multiplexed bead suspension arrays (MBA, Millipore). MBAs were analyzed using a Luminex 200 instrument and data was organized and analyzed using 3.1 xPONENT software. The plasma concentration of 14 patients with CLL was assessed at pre-dose baseline concentrations. The average plasma concentration of CCL3 (186 pg/mL) and CCL4 (303 pg/mL) at the pre-dose baseline are approximately 5 times higher in these subject compared to normal subjects. The average plasma concentration of CXCL13 (316 pg/mL) at pre-dose baseline was approximately 10 times higher than normal subjects. […] In the first week of dosing across all dose levels evaluated, the concentration of CCL3, CCL4 and CXCL13 were decreased by 2 to 5-fold. On the last day of the cycle, the plasma concentration of the chemokines was reassessed, see FIG. 1."}},
  "data": [
    {"molecule": "CC[C@H](Nc1ncnc2[nH]cnc12)c1nc2cccc(F)c2c(=O)n1-c1ccccc1", "note": "[Compound A, (S)-2-(1-(9H-purin-6-ylamino)propyl)-5-fluoro-3-phenylquinazolin-4(3H)-one]", "values": [
      {"measurement": "CCL3 and CCL4 secretion by anti-IgM stimulated CLL cells", "setting": "[1]", "value": "effective suppression of chemokine secretion to levels nearing the control values"},
      {"measurement": "change from predose to Day 28 of CCL3, CCL17 and TNF-alpha, responders vs non-responders", "setting": "[2]", "value": "significantly greater for individuals that responded to the drug than those that did not"},
      {"measurement": "TNF-alpha plasma concentration", "setting": "[3]; Day 28 (pre-treatment 41)", "value": 19, "unit": "pg/mL"},
      {"measurement": "CCL17 plasma concentration", "setting": "[3]; Day 28 (pre-treatment 234)", "value": 88, "unit": "pg/mL"},
      {"measurement": "CXCL13 plasma concentration", "setting": "[3]; Day 28 (pre-treatment 470)", "value": 161, "unit": "pg/mL"},
      {"measurement": "CCL22 plasma concentration", "setting": "[3]; Day 28 (pre-treatment 2602)", "value": 1166, "unit": "pg/mL"},
      {"measurement": "% reduction of CCL17", "setting": "[3]; Day 28 vs pre-treatment", "value": 62, "unit": "%"},
      {"measurement": "% reduction of CCL22", "setting": "[3]; Day 28 vs pre-treatment", "value": 55, "unit": "%"},
      {"measurement": "% reduction of CXCL13", "setting": "[3]; Day 28 vs pre-treatment", "value": 66, "unit": "%"},
      {"measurement": "% reduction of TNF-alpha", "setting": "[3]; Day 28 vs pre-treatment", "value": 54, "unit": "%"},
      {"measurement": "clinical activity (tumor size)", "setting": "[3]; FIG. 4b", "value": "reduction in tumor size"},
      {"measurement": "EC50", "setting": "[4]", "value": 3.89, "unit": "µM"},
      {"measurement": "EC50", "setting": "[5]", "value": "> 20", "unit": "µM"},
      {"measurement": "TNF-alpha plasma concentration", "setting": "[6]; Day 28 (pre-treatment 65)", "value": 37, "unit": "pg/mL"},
      {"measurement": "CCL17 plasma concentration", "setting": "[6]; Day 28 (pre-treatment 194)", "value": 60, "unit": "pg/mL"},
      {"measurement": "CXCL13 plasma concentration", "setting": "[6]; Day 28 (pre-treatment 437)", "value": 227, "unit": "pg/mL"},
      {"measurement": "CCL22 plasma concentration", "setting": "[6]; Day 28 (pre-treatment 2593)", "value": 1286, "unit": "pg/mL"},
      {"measurement": "% reduction of CCL17", "setting": "[6]; Day 28 vs pre-treatment", "value": 69, "unit": "%"},
      {"measurement": "% reduction of CCL22", "setting": "[6]; Day 28 vs pre-treatment", "value": 50, "unit": "%"},
      {"measurement": "% reduction of CXCL13", "setting": "[6]; Day 28 vs pre-treatment", "value": 48, "unit": "%"},
      {"measurement": "% reduction of TNF-alpha", "setting": "[6]; Day 28 vs pre-treatment", "value": 43, "unit": "%"},
      {"measurement": "clinical activity (tumor size)", "setting": "[6]; FIG. 4a", "value": "reduction in tumor size"},
      {"measurement": "clinical activity (lymphadenopathy)", "setting": "[7]; 50 to 350 mg BID, 28-day dosing period", "value": "decrease in lymphadenopathy"},
      {"measurement": "CCL3 plasma concentration", "setting": "[7]; Day 28 of cycle 1, 50 to 350 mg BID, average (baseline 186)", "value": 29, "unit": "pg/mL"},
      {"measurement": "CCL4 plasma concentration", "setting": "[7]; Day 28 of cycle 1, 50 to 350 mg BID, average (baseline 303)", "value": 70, "unit": "pg/mL"},
      {"measurement": "CXCL13 plasma concentration", "setting": "[7]; Day 28 of cycle 1, 50 to 350 mg BID, average (baseline 316)", "value": 40, "unit": "pg/mL"},
      {"measurement": "% reduction of CCL3", "setting": "[7]; Day 28 vs baseline", "value": 84, "unit": "%"},
      {"measurement": "% reduction of CCL4", "setting": "[7]; Day 28 vs baseline", "value": 77, "unit": "%"},
      {"measurement": "% reduction of CXCL13", "setting": "[7]; Day 28 vs baseline", "value": 87, "unit": "%"},
      {"measurement": "decrease of the concentration of CCL3, CCL4 and CXCL13", "setting": "[7]; first week of dosing, across all dose levels evaluated (50 to 350 mg BID)", "value": "2 to 5", "unit": "fold"}
    ]}
  ]
}
